Earlier results in patent US20110236508A1, “L-ARGININE-BASED FORMULATION FOR ORAL ABSORPTION” (priority 2008, published 2011).

Columns and labels:
[1] = test system: coronary endothelial dysfunction; settings: oral 3 g TID, after 6 months
[2] = test system: brachial artery
[3] = test system: mice deficient in Apo-E; settings: 6% L-arginine drinking solution
[4] = test system: peripheral arterial disease; settings: 8 g, bid, 14 days
[5] = test system: coronary artery disease; settings: 9 g/day orally for 6 months
[6] = test system: anginal patients; settings: 6 g/day
[7] = 24 hypercholesterolemic patients, 14 g/day for 12 weeks

For N=C(N)NCCC[C@H](N)C(=O)O [L-arginine], the “patients' symptoms scores” value ([1]; compared with placebo) is given as “improvement”, the plasma endothelin concentrations ([1]; compared with placebo) is given as “decrease” and the “coronary blood flow in response to acetylcholine” value ([1]; P<0.05 versus placebo) is given as 149±20%. For the same molecule, the “flow-mediated dilation (FMD) of the brachial artery” value ([2]; 8 g p.o. two times daily for 14 days, 12 healthy old subjects, p<0.0001) was 5.7+/−1.2%, the “plasma levels of L-arginine” value ([2]; after 8 g p.o. two times daily for 14 days, versus 57.4+/−5.0) was 114.9 ± 11.6 µM and the ADMA plasma concentrations ([2]; during treatment, 8 g p.o. two times daily for 14 days) was “remained unchanged”. The “increase in treadmill exercise performance” value [3] was 61%, the “improvement in walking distance” value [4] was 150% and the “decrease in anginal episodes” value [5] was 70%. For the same molecule, the “improvement of acetylcholine-induced coronary vascular relaxation” value [5] was 149%, the exercise tolerance [6] was “improved” and the “time to 1 mm ST-segment depression during exercise-stress testing” value [6] was “increased”. The adverse effects [7] was “no reports of any adverse effects”.
